From patent publication US20230355690A1, “METHOD OF TREATMENT WITH LACTIC ACID BACTERIA” (UNIVERSITY-INDUSTRY COOPERATION GROUP OF KYUNG HEE …, priority 2017, published 2023)

What was measured:
IL-10 = experiment: Inflammation reaction inhibiting effect on dendritic cells (LPS): IL-10 expression, ELISA; format: cell-based; details: C57BL/6 mouse bone marrow dendritic cells + LPS; lactic acid bacteria 1×10^4 CFU/ml
Description: (§1) Immune cells were isolated from the bone marrow of a C57BL/6 mouse (male, 20-23 g) by using RPMI 1640 containing 10% FBS, 1% antibiotics, 1% glutamax and 0.1% mercaptoethanol, then treated with RBC lysis buffer, and then washed. Said cells were divided into each well of a 24-well plate, then treated with GM-CSF and IL-4 at a ratio of 1:1000, and then cultured. On a 5th day of culture, the cells were replaced with a new medium, then collected on an 8th day thereof, and then used as dendritic cells. After that, the dendritic cells were plated into a 24-well plate at 0.5×10^6 cells per well, then treated with a test material, i.e., lactic acid bacteria, as well as an inflammation reaction inducer, i.e., lipopolysaccharide (LPS) for 90 minutes or 24 hours, and then supernatant and cells were obtained therefrom. At that time, a treatment concentration of lactic acid bacteria was 1×10^4 CFU/ml. Also, in order to compare the effects of lactic acid bacteria, various prebiotics were used as the test material.
(§2) An expression level of IL-10 and IL-12 was measured from said obtained supernatant by means of an ELISA kit. Also, the expression level of p65 (NF-κB), p-p65 (phosphor-NF-κB) and β-actin was measured from the cells, which have been obtained after being treated with the test material for 90 minutes, by means of the same immunoblotting method as in Example 2.(1) above. The results of testing the inflammation reaction inhibiting effect of lactic acid bacteria on dendritic cells are shown in following tables 8 to 10.

IL-12 = experiment: Inflammation reaction inhibiting effect on dendritic cells (LPS): IL-12 expression, ELISA; format: cell-based; details: C57BL/6 mouse bone marrow dendritic cells + LPS; lactic acid bacteria 1×10^4 CFU/ml
Description: as §1, §2

Th17 cell = experiment: Spleen T cell differentiation into Th17 cells, FACS; format: cell-based; details: C56BL/6J mouse spleen CD4 T cells; lactic acid bacteria 1×10^5 CFU per well, four days
Description: (§3) Particularly, a spleen was isolated from a C56BL/6J mouse, then crushed, then suspended in an RPMI 1640 medium containing 10% FCS, and then CD4 T cells were isolated by using a CD4 T cell isolation kit (MiltenyiBiotec, Bergisch Gladbach, Germany). The isolated CD4 T cells were divided into a 12-well plate at 5×10^5 cells per well. After that, the cells were cultured in each well with an addition of anti-CD3, anti-CD28, IL-2 and IL-12 to induce a differentiation of T cells into Th1 cells; with the addition of anti-CD3, anti-CD28, IL-2 and IL-4 to induce the differentiation of T cells into Th2 cells; with the addition of anti-CD3, anti-CD28, IL-6 and TGF-β to induce the differentiation of T cells into Th17 cells; and with the addition of anti-CD3 and anti-CD28 to induce the differentiation of T cells into Treg cells, and a test material, i.e., lactic acid bacteria were inserted thereinto at 1×10^5 CFU per well, and then cultured for four days. Also, in order to compare the effects of lactic acid bacteria, various prebiotics were used as the test material.
(§4) After that, a differentiation potency of the T cells isolated from the spleen into Th1, Th2, Th17 and Treg cells was measured. Particularly, the cells of culture fluid were stained with anti-FOXp3 or anti-IL-17A antibodies, after which a distribution of Th1, Th2, Th17 and Treg cells was analyzed by means of a FACS (fluorescence-activated cell sorting) device (C6 Flow Cytometer® System, San Jose, CA, USA), wherein results thereof are shown in following tables 11 to 13. In the tables 11 to 13 below, the lactic acid bacteria are shown without species names thereof, and are given strain names assigned by the present inventors.

Treg cell = experiment: Spleen T cell differentiation into Treg cells, FACS; format: cell-based; details: C56BL/6J mouse spleen CD4 T cells; lactic acid bacteria 1×10^5 CFU per well, four days
Description: as §3, §4

NF-κB (p-p65/p65) [1] = experiment: Inflammation reaction inhibiting effect on macrophage (LPS): NF-κB activation, immunoblotting; format: cell-based; details: C57BL/6J mouse peritoneal macrophage + LPS; lactic acid bacteria 1×10^4 CFU/ml
Description: (§5) A six-week old C57BL/6J male mouse (20-23 g) was purchased from Raonbio Co., Ltd. 2 ml of sterilized 4% thioglycolate was intraperitoneally administered into the mouse, which was then anesthetized in 96 hours later. After that, 8 ml of RPMI 1640 medium was intraperitoneally administered to the mouse. In 5 to 10 minutes later, the RPMI medium (including macrophage) was intraperitoneally extracted again from the mouse, then centrifuged on condition of 1000 rpm for 10 minutes, and then washed twice again with the RPMI 1640 medium. The macrophage was plated into a 24-well plate at 0.5×10^6 cells per well, then cultured for 24 hours, and then unattached cells were removed therefrom. The macrophage culture fluid was treated with a test material, i.e., lactic acid bacteria as well as an inflammation reaction inducer, i.e., lipopolysaccharide (LPS) for 90 minutes or 24 hours, and then supernatant and cells were obtained therefrom. At that time, a treatment concentration of lactic acid bacteria was 1×10^4 CFU/ml. Also, in order to compare the effects of lactic acid bacteria, various prebiotics were used as the test material.
An expression level of TNF-α from said obtained supernatant was measured by means of an ELISA kit. Also, the expression level of p65 (NF-κB), p-p65 (phosphor-NF-κB) and β-actin was measured from said obtained cells by means of an immunoblotting method. Particularly, 50 μg of the supernatant was taken and subjected to electrophoresis in SDS 10% (w/v) polyacrylamide gel for one and half an hour. The electrophoresed sample was transferred onto a nitrocellulose paper on condition of 100 V and 400 mA for one hour and 10 minutes. The nitrocellulose paper, onto which the sample was transferred, was subjected to blocking by means of 5% skim milk for 30 minutes, then washed with PBS-Tween three times for five minutes each, and then subjected to reaction overnight with an addition of primary antibodies (Santa Cruz Biotechnology, the U.S.) at a ratio of 1:100. After that, such paper was washed three times for ten minutes each, and subjected to reaction with the addition of secondary antibodies (Santa Cruz Biotechnology, the U.S.) at a ratio of 1:1000 for one hour and 20 minutes. Then, such paper was washed three times for 15 minutes each, then subjected to fluorescent color formation, then developed, and then the intensity of chromophore band was measured.

Th2 cell = experiment: Spleen T cell differentiation into Th2 cells, FACS; format: cell-based; details: C56BL/6J mouse spleen CD4 T cells; lactic acid bacteria 1×10^5 CFU per well, four days
Description: as §3, §4

Th1 cell = experiment: Spleen T cell differentiation into Th1 cells, FACS; format: cell-based; details: C56BL/6J mouse spleen CD4 T cells; lactic acid bacteria 1×10^5 CFU per well, four days
Description: as §3, §4

NF-κB (p-p65/p65) [2] = experiment: Inflammation reaction inhibiting effect on dendritic cells (LPS): NF-κB activation, immunoblotting; format: cell-based; details: C57BL/6 mouse bone marrow dendritic cells + LPS, 90 minutes; lactic acid bacteria 1×10^4 CFU/ml
Description: as §1, §2

[3] = tested on: animal model with induced allergic rhinitis and asthma; experiment: Example 6: OVA-induced allergic rhinitis and asthma mice, indicators in serum and BALF (ELISA, FACS); format: in vivo, mouse; details: oral once daily for five days, Dx 1 mg/kg intraperitoneal
Description: Seven week-old BALB/C female mice (21-23 g) were acclimated for one week on condition of a controlled environment with humidity of 50%, temperature of 25° C., and light/dark cycle of 12:12 hours. After that, 20 μg of allergy-inducing ovalbumin (OVA) and 2 mg of aluminum hydroxide (Alum) were suspended into 0.2 ml of phosphate buffered saline (PBS: pH 7.4) and intraperitoneally injected into each of the mice on initial and 14th days of an experiment. Then, 100 μg of the OVA was dissolved in 10 μl of distilled water, and intranasally smeared onto each of the mice to induce allergic rhinitis and asthma therefrom on 26th, 27th and 28th days of the experiment. Meanwhile, a test drug, i.e., lactic acid bacteria were orally administered into each of the mice once daily for a total of five days from 26th to 30th days of the experiment. Also, dexamethasone, which was used as a positive control drug instead of lactic acid bacteria, was intraperitoneally administered at a dose of 1 mg/kg b.w. Further, in case of the mice of a normal group, allergic rhinitis and asthma were not induced therefrom, but only the phosphate buffered saline (PBS: pH 7.4) was orally administered thereinto instead of the OVA and the test drug. Furthermore, in case of the mice of a control group, allergic rhinitis and asthma were induced therefrom, and only the phosphate buffered saline (PBS: pH 7.4) was orally administered thereinto as the test drug. After an end of the experiment, the mice were anesthetized, after which blood, lung tissues and the BALF were collected therefrom. Serum was isolated from the blood collected by means of centrifugation, and used as an assay sample. Indicators related to anti-rhinitis and anti-asthma effects were analyzed from serum, the BALF and lung tissues by using various analysis methods. Each analysis method and indicators analyzed thereby are as follows. • Enzyme-linked immunosorbent assay (ELISA): IL-10, IL-5, IL-6, IL-4, IgE, etc. • FACS (fluorescence-activated cell sorting): Distribution of T cells (Th1: CD4^+/IFN-γ^+; Th2: CD4^+/IL-4^+; Treg: CD4^+/FOXp3^+; Th17: CD4^+/IL-17^+), Distribution of eosinophils (CD11b^+, Siglec-F^+)

TNF-α = experiment: Inflammation reaction inhibiting effect on macrophage (LPS): TNF-α expression, ELISA; format: cell-based; details: C57BL/6J mouse peritoneal macrophage + LPS; lactic acid bacteria 1×10^4 CFU/ml
Description: as §5, with “At that time, a treatment concentration of lactic acid bacteria was 1×10^4 CFU/ml. Also, in order to compare the effects of lactic acid bacteria, various prebiotics were used as the test material.” left out
An expression level of TNF-α from said obtained supernatant was measured by means of an ELISA kit. Also, the expression level of p65 (NF-κB), p-p65 (phosphor-NF-κB) and β-actin was measured from said obtained cells by means of an immunoblotting method. […] Then, such paper was washed three times for 15 minutes each, then subjected to fluorescent color formation, then developed, and then the intensity of chromophore band was measured.

Compound | IL-10 expression increasing rate (IL-10) | IL-12 expression inhibition rate (IL-12) | Differentiation inhibition rate Th17 cell (Th17 cell) | Differentiation increasing rate Treg cell (Treg cell) | NF-κB activation inhibition rate (p-p65/p65) (NF-κB (p-p65/p65) [1]) | Differentiation inhibition rate Th2 cell (Th2 cell) | Differentiation inhibition rate Th1 cell (Th1 cell) | NF-κB activation inhibition rate (p-p65/p65) (NF-κB (p-p65/p65) [2]) | Increasing rate Treg cell ([3]; BALF, FACS) | Inhibition rate Eosinophils ([3]; BALF, FACS) | Inhibition rate Th2 cell ([3]; BALF, FACS) | Increasing rate IL-10 ([3]; BALF) | Inhibition rate IL-4 ([3]; BALF) | Inhibition rate IL-5 ([3]; BALF) | Inhibition rate IL-4 ([3]; serum) | Inhibition rate IL-5 ([3]; serum) | Inhibition rate IgE ([3]; serum) | TNF-α expression inhibition rate (TNF-α)
OC[C@H]1O[C@@H](O[C@@H]2[C@@H](CO)OC(O)(CO)[C@H]2O)[C@H](O)[C@@H](O)[C@H]1O (mixture of isomers) [Lactulose, lactulose] | − (<10%) | + (10-30%) | − (<10%) | ++ (50-100%) | + (10-30%) | ++ (30-60%) | + (10-30%) | + (10-30%) |  |  |  |  |  |  |  |  |  | 
C[C@@H]1C[C@H]2[C@@H]3CCC4=CC(=O)C=C[C@]4(C)[C@@]3(F)[C@@H](O)C[C@]2(C)[C@@]1(O)C(=O)CO [Dx, dexamethasone] |  |  |  |  |  |  |  |  | − (<10%) | +++ (>60%) | +++ (>60%) | ++ (50-100%) | +++ (>60%) | +++ (>60%) | +++ (>60%) | ++ (30-60%) | +++ (>60%) | 
OC[C@H]1O[C@H](O[C@H]2O[C@H](CO)[C@@H](O)[C@H](O)[C@H]2O)[C@H](O)[C@@H](O)[C@@H]1O [Trehalose, trehalose] | + (10-50%) | + (10-30%) | + (10-30%) | + (10-50%) | + (10-30%) | + (10-30%) | + (10-30%) | + (10-30%) |  |  |  |  |  |  |  |  |  | 
cyclodextrin | − (<10%) | + (10-30%) | ++ (30-60%) | + (10-50%) | + (10-30%) | + (10-30%) | ++ (30-60%) | + (10-30%) |  |  |  |  |  |  |  |  |  | 
gelatin | + (10-50%) | + (10-30%) | + (10-30%) | + (10-50%) | + (10-30%) | ++ (30-60%) | + (10-30%) | + (10-30%) |  |  |  |  |  |  |  |  |  | + (10-30%)
